What was measured:
[1] = target: human Gal-1 (hGal-1) (Homo sapiens, UniProt P09382); experiment: Competitive binding assay: biotinylated hGal-1 to microplate-adsorbed asialofetuin (ASF); conditions: Activities on hGal-1; binding to ASF-coated plates, 3 hours at 4° C.; mean values; read-out: Gal-1 IC50
Procedure, shortened: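 Plate-adsorbed asialofetuin is incubated 3 h at 4 °C with biotinylated hGal-1, optionally its all-serine-substituted cysteine variant, plus compound dilutions. ABTS color after 1 h streptavidin-peroxidase (80 ng/mL) at 4 °C reports binding. Reported IC50 is a mean across repeat runs.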

[2] = target: human Gal-3 (hGal-3) (Homo sapiens (Human), UniProt P17931); experiment: Competitive binding assay: biotinylated hGal-3 to microplate-adsorbed asialofetuin (ASF); conditions: Activity on hGal-3; binding to ASF-coated plates, 3 hours at 4° C.; mean values
Procedure, shortened: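 Biotinylated hGal-3 (300-1000 ng/mL) binding to plate-adsorbed asialofetuin, with DMSO-diluted compound added, incubated 3 h at 4 °C. After washing, bound protein detected with streptavidin-peroxidase (80 ng/mL, 1 h, 4 °C) and ABTS substrate, read spectrophotometrically. IC50 given as mean of several measurements.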

human Gal-1 (hGal-1), sequence (P09382 2-135 limits assumed): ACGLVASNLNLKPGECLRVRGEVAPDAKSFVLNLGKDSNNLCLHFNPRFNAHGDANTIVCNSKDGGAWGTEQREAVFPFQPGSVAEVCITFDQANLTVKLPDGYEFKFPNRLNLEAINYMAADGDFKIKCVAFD
human Gal-3 (hGal-3), sequence (P17931 whole entry): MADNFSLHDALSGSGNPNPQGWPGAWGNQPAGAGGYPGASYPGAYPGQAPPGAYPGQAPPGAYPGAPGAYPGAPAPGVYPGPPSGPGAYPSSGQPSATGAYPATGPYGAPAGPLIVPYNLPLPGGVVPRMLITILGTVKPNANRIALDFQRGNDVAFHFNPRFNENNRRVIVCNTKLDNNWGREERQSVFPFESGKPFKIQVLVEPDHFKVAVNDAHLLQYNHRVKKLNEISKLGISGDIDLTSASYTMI

Compound	IC50 [1] [nM]	IC50 [2] [nM]
CO[C@@H]1[C@@H](n2cc(-c3cc(F)c(F)c(F)c3)nn2)[C@@H](O)[C@@H](CO)O[C@@H]1CC1=NOC2(CCC(O)CC2)C1 (stereo partly drawn) [Example 2.01, 3-(((2R,3R,4S,5R,6R)-5-hydroxy-6-(hydroxymethyl)-3-methoxy-4-(4-(3,4,5-trifluorophenyl)-1H-1,2,3-triazol-1-yl)tetrahydro-2H-pyran-2-yl)methyl)-1-oxa-2-azaspiro[4.5]dec-2-en-8-ol]	2200	250
CO[C@@H]1[C@@H](n2cc(-c3cc(F)c(F)c(F)c3)nn2)[C@@H](O)[C@@H](CO)O[C@@H]1CC1=NO[C@]2(CC[C@H](O)CC2)C1 [Example 2.03, (5r,8R)-3-(((2R,3R,4S,5R,6R)-5-hydroxy-6-(hydroxymethyl)-3-methoxy-4-(4-(3,4,5-trifluorophenyl)-1H-1,2,3-triazol-1-yl)tetrahydro-2H-pyran-2-yl)methyl)-1-oxa-2-azaspiro[4.5]dec-2-en-8-ol]	2000	190
CO[C@@H]1[C@@H](n2cc(-c3cc(F)c(F)c(F)c3)nn2)[C@@H](O)[C@@H](CO)O[C@@H]1CC1=NO[C@]2(CC[C@H](NC(C)=O)CC2)C1 [Example 2.04, N-((5r,8R)-3-(((2R,3R,4S,5R,6R)-5-hydroxy-6-(hydroxymethyl)-3-methoxy-4-(4-(3,4,5-trifluorophenyl)-1H-1,2,3-triazol-1-yl)tetrahydro-2H-pyran-2-yl)methyl)-1-oxa-2-azaspiro[4.5]dec-2-en-8-yl)acetamide]	810	61
CO[C@@H]1[C@@H](n2cc(-c3ccc(C)c(F)c3F)nn2)[C@@H](O)[C@@H](CO)O[C@@H]1CC1=NO[C@]2(CC[C@H](NC(C)=O)CC2)C1 [Example 2.06]	340	71
CO[C@@H]1[C@@H](n2cc(-c3ccc(Cl)c(F)c3F)nn2)[C@@H](O)[C@@H](CO)O[C@@H]1CC1=NO[C@]2(CC[C@H](NC(C)=O)CC2)C1 [Example 2.07, N-((5r,8R)-3-(((2R,3R,4S,5R,6R)-4-(4-(4-chloro-2,3-difluorophenyl)-1H-1,2,3-triazol-1-yl)-5-hydroxy-6-(hydroxymethyl)-3-methoxytetrahydro-2H-pyran-2-yl)methyl)-1-oxa-2-azaspiro[4.5]dec-2-en-8-yl)acetamide]	910	62
CO[C@@H]1[C@@H](n2cc(-c3ccc(F)c(F)c3F)nn2)[C@@H](O)[C@@H](CO)O[C@@H]1CC1=NO[C@]2(CC[C@H](NC(C)=O)CC2)C1 [Example 2.08, N-((5r,8R)-3-(((2R,3R,4S,5R,6R)-5-hydroxy-6-(hydroxymethyl)-3-methoxy-4-(4-(2,3,4-trifluorophenyl)-1H-1,2,3-triazol-1-yl)tetrahydro-2H-pyran-2-yl)methyl)-1-oxa-2-azaspiro[4.5]dec-2-en-8-yl)acetamide]	310	52
CCOC(=O)N[C@H]1CC[C@]2(CC1)CC(C[C@H]1O[C@H](CO)[C@H](O)[C@H](n3cc(-c4ccc(C)c(F)c4F)nn3)[C@H]1OC)=NO2 [Example 2.09, ethyl ((5r,8R)-3-(((2R,3R,4S,5R,6R)-4-(4-(2,3-difluoro-4-methylphenyl)-1H-1,2,3-triazol-1-yl)-5-hydroxy-6-(hydroxymethyl)-3-methoxytetrahydro-2H-pyran-2-yl)methyl)-1-oxa-2-azaspiro[4.5]dec-2-en-8-yl)carbamate]	640	17
CCOC(=O)N[C@H]1CC[C@]2(CC1)CC(C[C@H]1O[C@H](CO)[C@H](O)[C@H](n3cc(-c4ccc(F)c(F)c4F)nn3)[C@H]1OC)=NO2 [Example 2.10, ethyl ((5r,8R)-3-(((2R,3R,4S,5R,6R)-5-hydroxy-6-(hydroxymethyl)-3-methoxy-4-(4-(2,3,4-trifluorophenyl)-1H-1,2,3-triazol-1-yl)tetrahydro-2H-pyran-2-yl)methyl)-1-oxa-2-azaspiro[4.5]dec-2-en-8-yl)carbamate]	320	20
CO[C@@H]1[C@@H](n2cc(-c3cc(F)c(F)c(F)c3)nn2)[C@@H](O)[C@@H](CO)O[C@@H]1CC1=NO[C@]2(CC[C@H](NC(C)C)CC2)C1 [Example 2.12, (2R,3R,4S,5R,6R)-2-(hydroxymethyl)-6-(((5r,8R)-8-(isopropylamino)-1-oxa-2-azaspiro[4.5]dec-2-en-3-yl)methyl)-5-methoxy-4-(4-(3,4,5-trifluorophenyl)-1H-1,2,3-triazol-1-yl)tetrahydro-2H-pyran-3-ol]	2400	220
CO[C@@H]1[C@@H](n2cc(-c3cc(F)c(F)c(F)c3)nn2)[C@@H](O)[C@@H](CO)O[C@@H]1CC1=NOC2(CCC(NCC(F)F)CC2)C1 (stereo partly drawn) [Example 2.15, (2R,3R,4S,5R,6R)-6-((8-((2,2-difluoroethyl)amino)-1-oxa-2-azaspiro[4.5]dec-2-en-3-yl)methyl)-2-(hydroxymethyl)-5-methoxy-4-(4-(3,4,5-trifluorophenyl)-1H-1,2,3-triazol-1-yl)tetrahydro-2H-pyran-3-ol]	7200	280
CO[C@@H]1[C@@H](n2cc(-c3cc(F)c(F)c(F)c3)nn2)[C@@H](O)[C@@H](CO)O[C@@H]1CC1=NOC2(CCC(NC3CC3)CC2)C1 (stereo partly drawn) [Example 2.16, (2R,3R,4S,5R,6R)-6-((8-(cyclopropylamino)-1-oxa-2-azaspiro[4.5]dec-2-en-3-yl)methyl)-2-(hydroxymethyl)-5-methoxy-4-(4-(3,4,5-trifluorophenyl)-1H-1,2,3-triazol-1-yl)tetrahydro-2H-pyran-3-ol]	2400	240
CO[C@@H]1[C@@H](n2cc(-c3cc(F)c(F)c(F)c3)nn2)[C@@H](O)[C@@H](CO)O[C@@H]1CC1=NOC2(CCC(NCC(F)(F)F)CC2)C1 (stereo partly drawn) [Example 2.17, (2R,3R,4S,5R,6R)-2-(hydroxymethyl)-5-methoxy-6-((8-((2,2,2-trifluoroethyl)amino)-1-oxa-2-azaspiro[4.5]dec-2-en-3-yl)methyl)-4-(4-(3,4,5-trifluorophenyl)-1H-1,2,3-triazol-1-yl)tetrahydro-2H-pyran-3-ol]	1400	210
CO[C@@H]1[C@@H](n2cc(-c3cc(F)c(F)c(F)c3)nn2)[C@@H](O)[C@@H](CO)O[C@@H]1CC1=NOC2(CCC(=NO)CC2)C1 (stereo partly drawn) [Example 2.18, 3-(((2R,3R,4S,5R,6R)-5-hydroxy-6-(hydroxymethyl)-3-methoxy-4-(4-(3,4,5-trifluorophenyl)-1H-1,2,3-triazol-1-yl)tetrahydro-2H-pyran-2-yl)methyl)-1-oxa-2-azaspiro[4.5]dec-2-en-8-one oxime]	2900	320

Continued by falling IC50 [1], values first:

IC50 [1] [nM]	IC50 [2] [nM]	Compound
7000	550	CO[C@@H]1[C@@H](n2cc(-c3cc(F)c(F)c(F)c3)nn2)[C@@H](O)[C@@H](CO)O[C@@H]1CC1=NO[C@]2(CC[C@@H](NC(C)C)CC2)C1 [Example 2.13, (2R,3R,4S,5R,6R)-2-(hydroxymethyl)-6-(((5s,8S)-8-(isopropylamino)-1-oxa-2-azaspiro[4.5]dec-2-en-3-yl)methyl)-5-methoxy-4-(4-(3,4,5-trifluorophenyl)-1H-1,2,3-triazol-1-yl)tetrahydro-2H-pyran-3-ol]
5100	700	CO[C@@H]1[C@@H](n2cc(-c3cc(F)c(F)c(F)c3)nn2)[C@@H](O)[C@@H](CO)O[C@@H]1CC1=NO[C@]2(CC[C@@H](O)CC2)C1 [Example 2.02, (5s,8S)-3-(((2R,3R,4S,5R,6R)-5-hydroxy-6-(hydroxymethyl)-3-methoxy-4-(4-(3,4,5-trifluorophenyl)-1H-1,2,3-triazol-1-yl)tetrahydro-2H-pyran-2-yl)methyl)-1-oxa-2-azaspiro[4.5]dec-2-en-8-ol]
3600	450	CO[C@@H]1[C@@H](n2cc(-c3cc(F)c(F)c(F)c3)nn2)[C@@H](O)[C@@H](CO)O[C@@H]1CC1=NO[C@]2(CC[C@@H](NC(C)=O)CC2)C1 [Example 2.05, N-((5s,8S)-3-(((2R,3R,4S,5R,6R)-5-hydroxy-6-(hydroxymethyl)-3-methoxy-4-(4-(3,4,5-trifluorophenyl)-1H-1,2,3-triazol-1-yl)tetrahydro-2H-pyran-2-yl)methyl)-1-oxa-2-azaspiro[4.5]dec-2-en-8-yl)acetamide]
2600	390	CCC(CC)NC1CCC2(CC1)CC(C[C@H]1O[C@H](CO)[C@H](O)[C@H](n3cc(-c4cc(F)c(F)c(F)c4)nn3)[C@H]1OC)=NO2 (stereo partly drawn) [Example 2.14, (2R,3R,4S,5R,6R)-2-(hydroxymethyl)-5-methoxy-6-((8-(pentan-3-ylamino)-1-oxa-2-azaspiro[4.5]dec-2-en-3-yl)methyl)-4-(4-(3,4,5-trifluorophenyl)-1H-1,2,3-triazol-1-yl)tetrahydro-2H-pyran-3-ol]
1950	50	CO[C@@H]1[C@@H](n2cc(-c3ccc(C)c(F)c3F)nn2)[C@@H](O)[C@@H](CO)O[C@@H]1CC1=NOC2(C1)CC1CCC(C1)C2 (stereo partly drawn) [Example 1.82, (2R,3R,4S,5R,6R)-6-((4′H-spiro[bicyclo[3.2.1]octane-3,5′-isoxazol]-3′-yl)methyl)-4-(4-(2,3-difluoro-4-methylphenyl)-1H-1,2,3-triazol-1-yl)-2-(hydroxymethyl)-5-methoxytetrahydro-2H-pyran-3-ol]
340	19	CCOC(=O)N[C@H]1CC[C@]2(CC1)CC(C[C@H]1O[C@H](CO)[C@H](O)[C@H](n3cc(-c4ccc(Cl)c(F)c4F)nn3)[C@H]1OC)=NO2 [Example 2.11, ethyl ((5r,8R)-3-(((2R,3R,4S,5R,6R)-4-(4-(4-chloro-2,3-difluorophenyl)-1H-1,2,3-triazol-1-yl)-5-hydroxy-6-(hydroxymethyl)-3-methoxytetrahydro-2H-pyran-2-yl)methyl)-1-oxa-2-azaspiro[4.5]dec-2-en-8-yl)carbamate]

Source: patent US20230295182A1, “SPIRO DERIVATIVES OF ALPHA-D-GALACTOPYRANOSIDES” (Idorsia Pharmaceuticals Ltd, priority 2020, published 2023)
